System: Dkk1-LRP5-TCF-Luciferase
Experiment: Functional Dkk1-LRP5-TCF-Luciferase Assay in U2OS Cells
Conditions: for A = MAX FOLD Induction/DMSO CONTROL: maximum fold induction over DMSO control; for fold induction at 2 µM / fold induction at 20 µM / EC50: Homo sapiens, U2OS; for fold induction at 2 µM: read-out: B = TCF ACTIVITY/DMSO CONTROL Fold induction @ 2.0 uM, 2.0 uM compound; for fold induction at 20 µM: read-out: C = TCF ACTIVITY/DMSO CONTROL Fold induction @ 20.0 uM, 20.0 uM compound

Compound	A = MAX FOLD Induction/DMSO CONTROL [fold]	fold induction at 2 µM	fold induction at 20 µM	EC50 [µM]	C = TCF ACTIVITY/DMSO CONTROL Fold induction @ 20.0 uM (20.0 uM compound, 20 µM) [fold]
NC(=O)NCCC1CCN(c2nccc(-c3ccc4ccccc4c3)n2)CC1 [N-(2-{1-[4-(2-naphthyl)pyrimidin-2-yl]piperidin-4-yl}ethyl)urea]	1.112	–	–	–	–
N=C(N)OC(=N)NCCN1CCN(c2nccc(-c3ccc4ccccc4c3)n2)CC1 [N-(2-{4-[4-(2-naphthyl)pyrimidin-2-yl]piperazin-1-yl}ethyl)dicarbonimidic diamide]	–	1.22	0.49	–	–
CS(=O)(=O)NCCN1CCN(c2nccc(-c3ccc4ccccc4c3)n2)CC1 [N-(2-{4-[4-(2-naphthyl)pyrimidin-2-yl]piperazin-1-yl}ethyl)methanesulfonamide]	1.700	1.31	1.93	5.4	–
c1ccc2cc(-c3ccnc(NCCCN4CCOCC4)n3)ccc2c1 [N-(3-morpholin-4-ylpropyl)-4-(2-naphthyl)pyrimidin-2-amine]	2.120	1.68	3.27	23.8	–
COc1ccc(CNc2nccc(-c3ccc4ccccc4c3)n2)cc1 [N-(4-methoxybenzyl)-4-(2-naphthyl)pyrimidin-2-amine]	–	–	1.12	–	–
c1ccc2cc(-c3ccnc(NCC4CNC4)n3)ccc2c1 [N-(azetidin-3-ylmethyl)-4-(2-naphthyl)pyrimidin-2-amine]	3.140	1.46	1.15	–	–
CCC(C)Nc1nccc(-c2ccc3ccccc3c2)n1 (stereo not shown) [N-(sec-butyl)-4-(2-naphthyl)pyrimidin-2-amine]	–	1.01	1.34	–	–
CC(C)(C)Nc1nccc(-c2ccc3ccccc3c2)n1 [N-(tert-butyl)-4-(2-naphthyl)pyrimidin-2-amine]	–	1.75	–	–	–
CC(=O)N[C@H]1CC[C@H](Nc2nccc(-c3ccc4ccccc4c3)n2)CC1 [N-(trans-4-{[4-(2-naphthyl)pyrimidin-2-yl]amino}cyclohexyl)acetamide]	3.695	1.9	3.2	18.9	–
CS(=O)(=O)N[C@H]1CC[C@H](Nc2nccc(-c3ccc4ccccc4c3)n2)CC1 [N-(trans-4-{[4-(2-naphthyl)pyrimidin-2-yl]amino}cyclohexyl)methanesulfonamide]	2.940	1.79	2.38	3.3	–
CC(=O)NCC1CN(c2nccc(-c3ccc4ccccc4c3)n2)C1 [N-({1-[4-(2-naphthyl)pyrimidin-2-yl]azetidin-3-yl}methyl)acetamide]	–	0.69	1.76	–	–
CS(=O)(=O)NCC1CN(c2nccc(-c3ccc4ccccc4c3)n2)C1 [N-({1-[4-(2-naphthyl)pyrimidin-2-yl]azetidin-3-yl}methyl)methanesulfonamide]	–	1.1	1.38	–	–
NC(=O)NCC1CN(c2nccc(-c3ccc4ccccc4c3)n2)C1 [N-({1-[4-(2-naphthyl)pyrimidin-2-yl]azetidin-3-yl}methyl)urea]	–	1.46	1.64	–	–
CC(=O)NCC1CCN(c2nccc(-c3ccc4ccccc4c3)n2)CC1 [N-({1-[4-(2-naphthyl)pyrimidin-2-yl]piperidin-4-yl}methyl)acetamide]	2.273	1.63	2.71	1.9	2.500
O=C(NCC1CCN(c2nccc(-c3ccc4ccccc4c3)n2)CC1)c1ccccc1 [N-({1-[4-(2-naphthyl)pyrimidin-2-yl]piperidin-4-yl}methyl)benzamide]	–	1.69	–	–	–
CCNCC1CCN(c2nccc(-c3ccc4ccccc4c3)n2)CC1 [N-({1-[4-(2-naphthyl)pyrimidin-2-yl]piperidin-4-yl}methyl)ethanamine]	4.200	1.33	0.01	3.3	–
N=C(N)NCC1CCN(c2nccc(-c3ccc4ccccc4c3)n2)CC1 [N-({1-[4-(2-naphthyl)pyrimidin-2-yl]piperidin-4-yl}methyl)guanidine]	–	1.27	0.02	–	–
CS(=O)(=O)NCC1CCN(c2nccc(-c3ccc4ccccc4c3)n2)CC1 [N-({1-[4-(2-naphthyl)pyrimidin-2-yl]piperidin-4-yl}methyl)methanesulfonamide]	–	1.12	0.48	–	–
c1cnc(NCC2CCN(c3nccc(-c4ccc5ccccc5c4)n3)CC2)nc1 [N-({1-[4-(2-naphthyl)pyrimidin-2-yl]piperidin-4-yl}methyl)pyrimidin-2-amine]	–	1.28	1.48	–	–
O=C(NCC1CCN(c2nccc(-c3ccc4ccccc4c3)n2)CC1)N1CCCC1 [N-({1-[4-(2-naphthyl)pyrimidin-2-yl]piperidin-4-yl}methyl)pyrrolidine-1-carboxamide]	–	0.91	1.13	–	–

Compound	A = MAX FOLD Induction/DMSO CONTROL [fold]	fold induction at 2 µM	fold induction at 20 µM	EC50 [µM]	C = TCF ACTIVITY/DMSO CONTROL Fold induction @ 20.0 uM (20.0 uM compound, 20 µM) [fold]
NC(=O)NCC1CCN(c2nccc(-c3ccc4ccccc4c3)n2)CC1 [N-({1-[4-(2-naphthyl)pyrimidin-2-yl]piperidin-4-yl}methyl)urea]	–	1.29	1.18	–	–
CC(=O)NCC1CCN(c2nccc(-c3ccc4ccccc4c3)n2)C1 (stereo not shown) [N-({1-[4-(2-naphthyl)pyrimidin-2-yl]pyrrolidin-3-yl}methyl)acetamide]	–	0.95	1.5	–	–
O=C(NCC1CCN(c2nccc(-c3ccc4ccccc4c3)n2)C1)c1ccccc1 (stereo not shown) [N-({1-[4-(2-naphthyl)pyrimidin-2-yl]pyrrolidin-3-yl}methyl)benzamide]	–	1.06	1.03	–	–
O=CNCC1CCN(c2nccc(-c3ccc4ccccc4c3)n2)C1 (stereo not shown) [N-({1-[4-(2-naphthyl)pyrimidin-2-yl]pyrrolidin-3-yl}methyl)formamide]	–	1.09	1.68	–	–
CS(=O)(=O)NCC1CCN(c2nccc(-c3ccc4ccccc4c3)n2)C1 (stereo not shown) [N-({1-[4-(2-naphthyl)pyrimidin-2-yl]pyrrolidin-3-yl}methyl)methanesulfonamide]	–	0.88	1.63	–	–
NC(=O)NCC1CCN(c2nccc(-c3ccc4ccccc4c3)n2)C1 (stereo not shown) [N-({1-[4-(2-naphthyl)pyrimidin-2-yl]pyrrolidin-3-yl}methyl)urea]	1.720	1.14	2.34	19.4	–
Cc1ccc(S(=O)(=O)N2CC(CNc3nccc(-c4ccc5ccccc5c4)n3)C2)cc1 [N-({1-[(4-methylphenyl)sulfonyl]azetidin-3-yl}methyl)-4-(2-naphthyl)pyrimidin-2-amine]	–	1.45	1.2	–	–
Cc1ccc(S(=O)(=O)N2CCC(CNc3nccc(-c4ccc5ccccc5c4)n3)CC2)cc1 [N-({1-[(4-methylphenyl)sulfonyl]piperidin-4-yl}methyl)-4-(2-naphthyl)pyrimidin-2-amine]	–	1.17	0.92	–	–
CS(=O)(=O)N1CCC(Nc2nccc(-c3ccc4ccccc4c3)n2)CC1 [N-[1-(methylsulfonyl)piperidin-4-yl]-4-(2-naphthyl)pyrimidin-2-amine]	1.730	2.24	1.54	0.06	–
O=C(N1CCOCC1)N1CCC(Nc2nccc(-c3ccc4ccccc4c3)n2)CC1 [N-[1-(morpholin-4-ylcarbonyl)piperidin-4-yl]-4-(2-naphthyl)pyrimidin-2-amine]	–	1.03	1.07	–	–
c1ccc2cc(-c3ccnc(NC4CCCNCC4)n3)ccc2c1 (stereo not shown) [N-[4-(2-naphthyl)pyrimidin-2-yl]azepan-4-amine]	6.080	1.11	4.87	16.1	–
CC(=O)N1CC(CNc2nccc(-c3ccc4ccccc4c3)n2)C1 [N-[(1-acetylazetidin-3-yl)methyl]-4-(2-naphthyl)pyrimidin-2-amine]	–	1.8	–	–	–
CC(=O)N1CCC(CNc2nccc(-c3ccc4ccccc4c3)n2)CC1 [N-[(1-acetylpiperidin-4-yl)methyl]-4-(2-naphthyl)pyrimidin-2-amine]	–	1.02	1.33	–	–
O=C(c1ccccc1)N1CC(CNc2nccc(-c3ccc4ccccc4c3)n2)C1 [N-[(1-benzoylazetidin-3-yl)methyl]-4-(2-naphthyl)pyrimidin-2-amine]	–	1.5	–	–	–
O=C(c1ccccc1)N1CCC(CNc2nccc(-c3ccc4ccccc4c3)n2)CC1 [N-[(1-benzoylpiperidin-4-yl)methyl]-4-(2-naphthyl)pyrimidin-2-amine]	–	1.44	0.627	–	–
c1ccc(CN2CCC(CNc3nccc(-c4ccc5ccccc5c4)n3)CC2)cc1 [N-[(1-benzylpiperidin-4-yl)methyl]-4-(2-naphthyl)pyrimidin-2-amine]	–	–	1.49	–	–
CCN1CCC(CNc2nccc(-c3ccc4ccccc4c3)n2)CC1 [N-[(1-ethylpiperidin-4-yl)methyl]-4-(2-naphthyl)pyrimidin-2-amine]	3.450	1.5	0.908	3.94	–
CS(=O)(=O)N1CC[C@@H](Nc2nccc(-c3ccc4ccccc4c3)n2)C1 [N-[(3R)-1-(methylsulfonyl)pyrrolidin-3-yl]-4-(2-naphthyl)pyrimidin-2-amine]	3.380	–	3.46	3.55	–
O=C(N1CCOCC1)N1CC[C@@H](Nc2nccc(-c3ccc4ccccc4c3)n2)C1 [N-[(3R)-1-(morpholin-4-ylcarbonyl)pyrrolidin-3-yl]-4-(2-naphthyl)pyrimidin-2-amine]	1.340	–	2.35	–	–

From US20090054392A1, “NAPHTHYLPYRIMIDINE, NAPHTHYLPYRAZINE AND NAPHTHYLPYRIDAZINE ANALOGS AND THEIR USE AS AGONISTS OF THE WNT-BETA-CATENIN CELLULAR MESSAGING SYSTEM” (Wyeth, priority 2007, published 2009)
